Data from ChEMBL document CHEMBL4311992, “Discovery of 3-(((9H-purin-6-yl)amino)methyl)-4,6-dimethylpyridin-2(1H)-one derivatives as novel tubulin polymerization inhibitors for treatment of cancer” (Eur J Med Chem, 2019).
Activity calls are given as the source filed them. No cut-off for these calls is given here.

How the values were obtained:
[1] = molecular target: Mitogen-activated protein kinase kinase kinase 20 (Homo sapiens) (UniProt Q9NYL2); test: Inhibition of recombinant full-length human ZAK assessed as residual activity at 10 uM using MBP as substrate measured after 40 mins in presence of [gamma33P]ATP by scintillation counting method
Sequence of Mitogen-activated protein kinase kinase kinase 20 (Homo sapiens) (Q9NYL2 2-800 limits assumed): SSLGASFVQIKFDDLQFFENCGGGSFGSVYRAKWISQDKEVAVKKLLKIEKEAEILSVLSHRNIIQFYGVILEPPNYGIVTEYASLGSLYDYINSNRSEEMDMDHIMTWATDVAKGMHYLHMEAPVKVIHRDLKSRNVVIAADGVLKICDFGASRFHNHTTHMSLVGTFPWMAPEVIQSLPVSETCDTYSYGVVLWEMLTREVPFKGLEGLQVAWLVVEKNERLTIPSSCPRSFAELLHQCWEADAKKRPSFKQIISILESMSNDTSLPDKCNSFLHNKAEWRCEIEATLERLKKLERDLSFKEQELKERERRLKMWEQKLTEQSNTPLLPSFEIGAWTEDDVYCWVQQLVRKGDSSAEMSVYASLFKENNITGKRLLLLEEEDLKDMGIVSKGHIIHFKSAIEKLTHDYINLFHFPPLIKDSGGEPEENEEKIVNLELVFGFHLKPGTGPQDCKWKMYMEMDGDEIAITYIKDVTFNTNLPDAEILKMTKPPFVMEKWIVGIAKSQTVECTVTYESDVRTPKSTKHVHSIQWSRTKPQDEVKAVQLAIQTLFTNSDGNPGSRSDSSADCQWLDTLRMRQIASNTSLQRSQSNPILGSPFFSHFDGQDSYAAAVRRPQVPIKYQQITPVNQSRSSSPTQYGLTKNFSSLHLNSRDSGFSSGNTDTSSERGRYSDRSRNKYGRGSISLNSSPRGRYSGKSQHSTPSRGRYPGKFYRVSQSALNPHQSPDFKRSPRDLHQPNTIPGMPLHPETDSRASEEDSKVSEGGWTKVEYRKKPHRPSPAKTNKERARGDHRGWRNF

[2] = species on record: Homo sapiens; test: Inhibition of recombinant human DDR1 V833L mutant (492 to end residues) assessed as residual activity at 10 uM using KKKSPGEYVNIEFG as substrate measured after 40 mins in presence of [gamma33P]ATP by scintillation counting method
[3] = tested on: HCT-116; test: Inhibition of colony formation in human HCT116 cells at 50 nM after 14 days by crystal violet staining-based microscopic analysis; type: functional; details: HCT-116, 336 h
[4] = tested on: Serine/threonine-protein kinase Chk2 (Homo sapiens), O96017 [I157T]; test: Inhibition of recombinant human CHK2 I157T mutant (5 to end residues) assessed as residual activity at 10 uM using KKKVSRSGLYRSPSMPENLNRPR as substrate measured after 40 mins in presence of [gamma33P]ATP by scintillation counting method
[5] = molecular target: CDK2/Cyclin A2 (Homo sapiens) (UniProt P24941+P20248); test: Inhibition of recombinant full-length human CDK2/cyclinA assessed as residual activity at 10 uM using histone H1 as substrate measured after 40 mins in presence of [gamma33P]ATP by scintillation counting method; type: protein-complex assay
[6] = molecular target: Tyrosine-protein kinase JAK2 (Homo sapiens) (UniProt O60674); test: Inhibition of recombinant human JAK2 (808 to end residues) assessed as residual activity at 10 uM using KTFCGTPEYLAPEVRREPRILSEEEQEMFRDFDYIADWC as substrate measured after 40 mins in presence of [gamma33P]ATP by scintillation counting method
[7] = Toxicity in nude BALB/c mouse assessed as change in WBC level at 40 to 80 mg/kg, po once daily for 4 weeks measured post-last dose; type: organism-based; details: in vivo, 672 h
[8] = tested on: Proto-oncogene tyrosine-protein kinase receptor Ret (Homo sapiens), P07949 [V804L]; test: Inhibition of human Ret V804L mutant (658 to end residues) using KKKSPGEYVNIEFG as substrate measured after 40 mins in presence of [gamma33P]ATP by scintillation counting method; set-up: scale not given: the % may be the effect or the level left
Sequence of Proto-oncogene tyrosine-protein kinase receptor Ret (Homo sapiens), P07949 [V804L] (P07949 whole entry V804L): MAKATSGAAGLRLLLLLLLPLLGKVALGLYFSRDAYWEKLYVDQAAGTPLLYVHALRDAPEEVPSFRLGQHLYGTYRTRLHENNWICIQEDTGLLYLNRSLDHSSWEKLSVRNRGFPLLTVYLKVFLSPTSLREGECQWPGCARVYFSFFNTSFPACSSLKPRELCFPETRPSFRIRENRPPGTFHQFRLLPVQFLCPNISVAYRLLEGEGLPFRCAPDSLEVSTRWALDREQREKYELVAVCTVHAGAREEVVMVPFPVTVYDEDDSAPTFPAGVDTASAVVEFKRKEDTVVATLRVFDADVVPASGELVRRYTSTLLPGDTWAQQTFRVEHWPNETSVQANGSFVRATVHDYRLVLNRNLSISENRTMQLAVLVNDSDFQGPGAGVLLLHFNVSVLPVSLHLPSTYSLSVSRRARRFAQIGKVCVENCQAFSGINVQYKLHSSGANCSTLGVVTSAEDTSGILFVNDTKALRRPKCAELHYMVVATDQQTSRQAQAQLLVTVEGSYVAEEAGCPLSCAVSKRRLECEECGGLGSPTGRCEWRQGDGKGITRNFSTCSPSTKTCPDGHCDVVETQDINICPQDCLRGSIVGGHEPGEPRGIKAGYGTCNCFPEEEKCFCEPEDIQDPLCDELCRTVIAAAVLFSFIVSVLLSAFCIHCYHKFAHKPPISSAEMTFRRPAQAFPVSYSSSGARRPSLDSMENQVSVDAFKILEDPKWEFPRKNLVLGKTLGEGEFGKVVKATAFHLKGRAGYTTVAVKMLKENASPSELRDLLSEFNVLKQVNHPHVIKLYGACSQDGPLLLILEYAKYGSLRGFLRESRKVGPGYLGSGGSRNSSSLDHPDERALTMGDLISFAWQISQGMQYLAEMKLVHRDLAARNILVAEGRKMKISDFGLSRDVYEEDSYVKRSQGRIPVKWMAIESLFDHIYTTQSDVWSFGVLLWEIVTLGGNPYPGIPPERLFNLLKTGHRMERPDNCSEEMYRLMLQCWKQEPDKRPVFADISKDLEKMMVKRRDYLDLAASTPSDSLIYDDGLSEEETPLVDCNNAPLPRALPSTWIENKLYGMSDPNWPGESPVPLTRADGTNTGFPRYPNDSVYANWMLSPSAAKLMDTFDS

[9] = molecular target: Tyrosine-protein kinase Lck (Homo sapiens) (UniProt P06239); test: Inhibition of recombinant full-length human activated Lck assessed as residual activity at 10 uM using KVEKIGEGTYGVVYK as substrate measured after 40 mins in presence of [gamma33P]ATP by scintillation counting method
[10] = tested on: HCT-116; test: Induction of apoptosis in human HCT116 cells assessed as late apoptotic cells at 25 nM measured after 48 hrs by Annexin V-FITC/propidium iodide staining-based flow cytometry (reference value: 3.87%); type: functional
[11] = molecular target: Serine/threonine-protein kinase tousled-like 2 (Homo sapiens) (UniProt Q86UE8); test: Inhibition of human TLK2 (387 to end residues) using casein as substrate measured after 40 mins in presence of [gamma33P]ATP by scintillation counting method; set-up: scale not given: the % may be the effect or the level left
[12] = tested on: SW-620; test: Induction of apoptosis in human SW620 cells assessed as increase in cleaved caspase3 expression up to 200 nM measured after 48 hrs by Western blot analysis; type: functional, cell-based
[13] = species on record: Homo sapiens; test: Inhibition of recombinant full-length human ATRIP/ATR M211T mutant assessed as residual activity at 10 uM using GST-cMyc-p53 as substrate measured after 40 mins by fluorescence assay
[14] = molecular target: Tyrosine-protein kinase Fyn (Homo sapiens) (UniProt P06241); test: Inhibition of recombinant full-length human FYN assessed as residual activity at 10 uM using Cdc2 peptide as substrate measured after 40 mins in presence of [gamma33P]ATP by scintillation counting method
[15] = molecular target: Serine/threonine-protein kinase mTOR (Homo sapiens) (UniProt P42345); test: Inhibition of recombinant full-length human mTOR assessed as residual activity at 10 uM measured after 40 mins in presence of [gamma33P]ATP by scintillation counting method
[16] = tested on: HCT-116; test: Induction of apoptosis in human HCT116 cells assessed as viable cells at 50 nM measured after 48 hrs by Annexin V-FITC/propidium iodide staining-based flow cytometry (reference value: 94.5%); type: functional; details: HCT-116, 48 h, read-out: Activity
[17] = molecular target: Serine/threonine-protein kinase SIK3 (Homo sapiens) (UniProt Q9Y2K2); test: Inhibition of human SIK3 (1 to 307 residues) using KKKVSRSGLYRSPSMPENLNRPR as substrate measured after 40 mins in presence of [gamma33P]ATP by scintillation counting method; set-up: scale not given: the % may be the effect or the level left
Sequence of Serine/threonine-protein kinase SIK3 (Homo sapiens) (Q9Y2K2 whole entry, looked up, the tested form may be a part): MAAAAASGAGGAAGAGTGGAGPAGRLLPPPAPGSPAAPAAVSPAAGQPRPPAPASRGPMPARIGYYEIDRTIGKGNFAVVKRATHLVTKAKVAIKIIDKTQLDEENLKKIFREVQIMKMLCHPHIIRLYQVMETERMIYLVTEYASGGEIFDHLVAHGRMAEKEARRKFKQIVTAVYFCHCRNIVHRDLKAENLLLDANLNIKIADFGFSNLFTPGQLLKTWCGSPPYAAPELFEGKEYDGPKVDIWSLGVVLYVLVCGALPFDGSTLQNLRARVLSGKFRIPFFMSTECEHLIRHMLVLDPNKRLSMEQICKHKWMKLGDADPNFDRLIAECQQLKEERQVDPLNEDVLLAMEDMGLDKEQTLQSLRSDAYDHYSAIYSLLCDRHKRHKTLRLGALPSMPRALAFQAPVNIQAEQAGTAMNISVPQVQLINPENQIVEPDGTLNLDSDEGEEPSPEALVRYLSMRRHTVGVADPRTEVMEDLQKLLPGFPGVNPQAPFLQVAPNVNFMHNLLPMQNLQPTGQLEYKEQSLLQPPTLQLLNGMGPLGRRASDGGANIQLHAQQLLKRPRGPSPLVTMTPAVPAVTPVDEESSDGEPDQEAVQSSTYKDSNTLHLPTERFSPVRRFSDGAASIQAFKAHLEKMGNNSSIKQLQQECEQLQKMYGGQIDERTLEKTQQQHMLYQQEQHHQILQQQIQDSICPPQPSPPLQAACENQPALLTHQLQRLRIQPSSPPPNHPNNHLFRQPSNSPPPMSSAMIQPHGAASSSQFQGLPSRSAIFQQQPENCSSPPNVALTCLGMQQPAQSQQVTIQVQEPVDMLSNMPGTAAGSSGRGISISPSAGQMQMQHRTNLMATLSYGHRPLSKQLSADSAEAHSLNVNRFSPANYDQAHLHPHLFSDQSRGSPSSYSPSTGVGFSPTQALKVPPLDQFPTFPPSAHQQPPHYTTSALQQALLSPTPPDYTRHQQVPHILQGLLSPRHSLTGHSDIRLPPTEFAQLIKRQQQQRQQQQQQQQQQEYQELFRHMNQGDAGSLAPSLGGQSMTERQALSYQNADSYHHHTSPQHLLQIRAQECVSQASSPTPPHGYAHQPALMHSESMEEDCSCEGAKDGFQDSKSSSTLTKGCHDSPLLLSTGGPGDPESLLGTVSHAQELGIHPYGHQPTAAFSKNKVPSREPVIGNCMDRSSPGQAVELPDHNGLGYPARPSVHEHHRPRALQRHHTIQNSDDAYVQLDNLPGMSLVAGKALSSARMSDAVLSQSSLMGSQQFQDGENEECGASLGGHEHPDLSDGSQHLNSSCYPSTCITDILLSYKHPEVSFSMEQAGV

[18] = molecular target: Tubulin (Homo sapiens) (UniProt P68371+Q9H4B7+P0DPH7+P68366+Q13509+Q71U36+P04350+Q3ZCM7+P07437+P68363+Q9BQE3+Q6PEY2+Q13885+Q9BVA1+Q9BUF5); test: Disruption of microtubule network in human HCT116 cells assessed as microtubule condensation at 50 nM incubated for 18 hrs by FITC/DAPI staining-based confocal microscopic analysis; type: cell-based
[19] = molecular target: FKBP12A/mTOR (Homo sapiens) (UniProt P62942+P42345); test: Inhibition of recombinant full-length human mTOR/FKBP12 assessed as residual activity at 10 uM measured after 40 mins in presence of [gamma33P]ATP by scintillation counting method; type: protein-complex assay
Sequence of FKBP12A/mTOR (Homo sapiens) (P62942 2-108 limits assumed, other chains not shown): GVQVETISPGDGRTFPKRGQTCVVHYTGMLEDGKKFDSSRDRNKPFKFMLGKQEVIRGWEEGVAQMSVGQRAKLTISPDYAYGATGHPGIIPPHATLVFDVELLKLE

[20] = tested on: HCT-116; test: Induction of apoptosis in human HCT116 cells assessed as viable cells at 100 nM measured after 48 hrs by Annexin V-FITC/propidium iodide staining-based flow cytometry (reference value: 94.5%); type: functional; details: HCT-116, 48 h, read-out: Activity
[21] = molecular target: LIM domain kinase 2 (Homo sapiens) (UniProt P53671); test: Inhibition of recombinant human LIMK2 assessed as residual activity at 10 uM by radiometric method
[22] = molecular target: Serine/threonine-protein kinase MRCK alpha (Homo sapiens) (UniProt Q5VT25); test: Inhibition of recombinant human MRCKalpha (1 to 473 residues) assessed as residual activity at 10 uM using KKRNRTLTV as substrate measured after 40 mins in presence of [gamma33P]ATP by scintillation counting method
[23] = molecular target: 5'-AMP-activated protein kinase catalytic subunit alpha-2 (Homo sapiens) (UniProt P54646); test: Inhibition of recombinant full-length human AMPKalpha2 assessed as residual activity at 10 uM using AMARAASAAALARRR as substrate measured after 40 mins in presence of [gamma33P]ATP by scintillation counting method
[24] = tested on: SW-620; test: Cell cycle arrest in human SW620 cells assessed as up regulation of cdc25 expression up to 150 nM after 24 hrs by Western blot analysis; type: functional, cell-based
[25] = molecular target: Serine/threonine-protein kinase MRCK gamma (Homo sapiens) (UniProt Q6DT37); test: Inhibition of recombinant human MRCKgamma assessed as residual activity at 10 uM using KKRNRTLTV as substrate measured after 40 mins in presence of [gamma33P]ATP by scintillation counting method
Sequence of Serine/threonine-protein kinase MRCK gamma (Homo sapiens) (Q6DT37 whole entry): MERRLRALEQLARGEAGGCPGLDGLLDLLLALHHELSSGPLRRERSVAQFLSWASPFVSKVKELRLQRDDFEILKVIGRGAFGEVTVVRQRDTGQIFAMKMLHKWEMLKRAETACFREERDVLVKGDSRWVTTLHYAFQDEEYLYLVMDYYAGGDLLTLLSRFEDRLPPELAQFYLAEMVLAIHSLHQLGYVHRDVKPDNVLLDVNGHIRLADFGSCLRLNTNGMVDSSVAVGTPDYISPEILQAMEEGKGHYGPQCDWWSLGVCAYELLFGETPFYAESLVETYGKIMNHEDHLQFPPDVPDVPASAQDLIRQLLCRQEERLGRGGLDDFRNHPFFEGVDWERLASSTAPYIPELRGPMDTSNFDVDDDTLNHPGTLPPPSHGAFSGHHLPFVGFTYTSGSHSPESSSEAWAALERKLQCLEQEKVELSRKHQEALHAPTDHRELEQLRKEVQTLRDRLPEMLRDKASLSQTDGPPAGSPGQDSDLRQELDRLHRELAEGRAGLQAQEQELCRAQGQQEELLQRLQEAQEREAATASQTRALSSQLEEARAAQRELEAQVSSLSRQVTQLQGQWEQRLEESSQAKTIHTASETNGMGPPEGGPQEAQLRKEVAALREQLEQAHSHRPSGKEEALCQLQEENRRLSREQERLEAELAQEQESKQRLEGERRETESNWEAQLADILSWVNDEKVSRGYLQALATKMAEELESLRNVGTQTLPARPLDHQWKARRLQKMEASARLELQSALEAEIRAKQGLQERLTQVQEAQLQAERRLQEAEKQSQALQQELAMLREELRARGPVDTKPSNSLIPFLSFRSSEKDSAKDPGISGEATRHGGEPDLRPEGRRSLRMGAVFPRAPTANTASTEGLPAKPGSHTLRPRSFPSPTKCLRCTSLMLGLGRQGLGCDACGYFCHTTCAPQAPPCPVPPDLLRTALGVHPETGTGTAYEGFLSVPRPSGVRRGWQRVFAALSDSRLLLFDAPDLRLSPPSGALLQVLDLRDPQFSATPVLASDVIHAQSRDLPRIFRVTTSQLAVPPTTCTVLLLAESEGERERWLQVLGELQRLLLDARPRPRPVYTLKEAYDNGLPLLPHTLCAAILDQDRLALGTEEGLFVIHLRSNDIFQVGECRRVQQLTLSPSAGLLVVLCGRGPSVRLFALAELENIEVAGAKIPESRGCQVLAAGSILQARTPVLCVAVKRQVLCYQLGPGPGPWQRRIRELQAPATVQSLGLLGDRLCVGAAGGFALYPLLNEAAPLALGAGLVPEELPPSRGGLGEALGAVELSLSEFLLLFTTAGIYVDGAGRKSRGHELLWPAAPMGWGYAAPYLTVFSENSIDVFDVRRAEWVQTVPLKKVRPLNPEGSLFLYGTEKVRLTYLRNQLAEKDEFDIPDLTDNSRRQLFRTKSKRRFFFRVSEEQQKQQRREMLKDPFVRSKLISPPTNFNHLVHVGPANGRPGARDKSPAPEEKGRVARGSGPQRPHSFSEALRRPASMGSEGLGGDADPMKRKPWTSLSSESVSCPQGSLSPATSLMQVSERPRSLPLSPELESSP

With `Cc1cc(C)c(CNc2nc(Cl)nc3c2ncn3C2CCCC2)c(=O)[nH]1` as the molecule, how does the Activity [1] read?
The Activity was 97%.

And the Activity [2]?
Its Activity is 114%.

And the inhibition at 0.05 µM [3]?
Its inhibition at 0.05 µM is 100%.

And the Activity [4]?
Its Activity is 103%.

And the Activity [5]?
Its Activity is 110%.

What about the Activity [6] of the same molecule?
Its Activity is 115%.

And the Activity [7]?
The Activity was “Non-Toxic”.

And the Activity [8]?
The Activity was 106%.

And the Activity [9]?
The Activity was 102%.

What about the Activity [10] of the same molecule?
Its Activity is 17.1%.

And the Activity [11]?
The Activity was 119%.

And the Activity [12]?
The Activity was “Active”.

What about the Activity [13] of the same molecule?
The Activity was 106%.

And the Activity [14]?
Its Activity is 98%.

What about the Activity [15] of the same molecule?
Its Activity is 78.5%.

And the viability at 0.05 µM [16]?
The viability at 0.05 µM was 42.6%.

What about the Activity [17] of the same molecule?
The Activity was 119%.

And the Activity [18]?
The Activity was “Active”.

What about the Activity [19] of the same molecule?
The Activity was 96.5%.

What about the viability at 0.1 µM [20] of the same molecule?
The viability at 0.1 µM was 39%.

And the Activity [21]?
Its Activity is 106%.

And the Activity [22]?
The Activity was 110%.

What about the Activity [23] of the same molecule?
Its Activity is 117%.

What about the Activity [24] of the same molecule?
The Activity was “Active”.

What about the Activity [25] of the same molecule?
Its Activity is 122%.
